Measurements reported in BindingDB's records for PubMed 39369480 (Xuzhou Medical University).

Assay: Inhibition of P-gp in human K562/A02 cells over expressing P-gp assessed as reversal of multi-drug resistance by measuring ADR IC50 measured after 72 hrs by CCK-8 assay

SMILES | IC50
COc1ccc(C(=O)Nc2ccccc2/N=N/c2ccc(CCN3CCc4cc(OC)c(OC)cc4C3)cc2)cc1OC | 0.035 µM
COc1cc2c(cc1OC)CN(CCc1ccc(/N=N/c3ccccc3NC(=O)c3ccc(C)c(C)c3)cc1)CC2 | 0.168 µM
COc1ccccc1/N=N/c1ccccc1C(=O)Nc1ccc(CCN2CCc3cc(OC)c(OC)cc3C2)cc1 | 0.275 µM
COc1cc2c(cc1OC)CN(CCc1ccc(/N=N/c3ccccc3NC(=O)c3cccc([N+](=O)[O-])c3)cc1)CC2 | 0.05 µM
COc1cc2c(cc1OC)CN(CCc1ccc(/N=N/c3ccccc3NC(=O)c3ccccc3)cc1)CC2 | 0.07 µM
COc1cc2c(cc1OC)CN(CCc1ccc(NC(=O)c3ccccc3/N=N/c3ccc(C)cc3)cc1)CC2 | 0.068 µM
COc1ccc(C(=O)Nc2ccccc2/N=N/c2ccc(CCN3CCc4cc(OC)c(OC)cc4C3)cc2)cc1 | 0.088 µM
COc1cc2c(cc1OC)CN(CCc1ccc(/N=N/c3ccccc3NC(=O)c3ccccc3[N+](=O)[O-])cc1)CC2 | 0.02 µM
COc1cc2c(cc1OC)CN(CCc1ccc(/N=N/c3ccccc3NC(=O)c3ccccc3OC)cc1)CC2 | 0.015 µM
COc1ccc(C(=O)Nc2ccccc2C(=O)Nc2ccc(CCN3CCc4cc(OC)c(OC)cc4C3)cc2)cc1OC [N-(2-(4-(2-(6,7-dimethoxy-3,4-dihydroisoquinolin-2(1H)-yl)ethyl)phenylcarbamoyl)phenyl)-3,4-dimethoxybenzamide] | 0.034 µM
COc1cc2c(cc1OC)CN(CCc1ccc(/N=N/c3ccccc3NC(=O)c3ccc(Cl)c(Cl)c3)cc1)CC2 | 1.6 µM
COc1cc2c(cc1OC)CN(CCc1ccc(NC(=O)c3ccccc3/N=N/c3ccc(Cl)cc3)cc1)CC2 | 0.082 µM
COc1cc2c(cc1OC)CN(CCc1ccc(/N=N/c3ccccc3NC(=O)c3ccc([N+](=O)[O-])cc3)cc1)CC2 | 0.12 µM
COc1cc2c(cc1OC)CN(CCc1ccc(/N=N/c3ccccc3NC(=O)c3cc(OC)c(OC)c(OC)c3)cc1)CC2 | 1.29 µM
COc1cc2c(cc1OC)CN(CCc1ccc(/N=N/c3ccccc3NC(=O)c3ccccc3Cl)cc1)CC2 | 0.032 µM
COc1cccc(C(=O)Nc2ccccc2/N=N/c2ccc(CCN3CCc4cc(OC)c(OC)cc4C3)cc2)c1 | 0.068 µM
COc1cc2c(cc1OC)CN(CCc1ccc(/N=N/c3ccccc3NC(=O)c3ccc(C)cc3)cc1)CC2 | 0.044 µM
COc1cc2c(cc1OC)CN(CCc1ccc(NC(=O)c3ccccc3/N=N/c3ccccc3)cc1)CC2 | 0.092 µM
COc1cc2c(cc1OC)CN(CCc1ccc(/N=N/c3ccccc3NC(=O)c3ccc(Cl)cc3)cc1)CC2 | 0.083 µM
COc1cc2c(cc1OC)CN(CCc1ccc(NC(=O)c3ccccc3/N=N/c3cccc(Cl)c3)cc1)CC2 | 0.084 µM
COc1cc2c(cc1OC)CN(CCc1ccc(/N=N/c3ccccc3NC(=O)c3ccc(C(C)(C)C)cc3)cc1)CC2 | 0.105 µM
COc1cc2c(cc1OC)CN(CCc1ccc(/N=N/c3ccccc3NC(=O)c3cccc(Cl)c3)cc1)CC2 | 0.043 µM
COc1cc2c(cc1OC)CN(CCc1ccc(/N=N/c3ccccc3NC(=O)c3ccc(F)c(F)c3)cc1)CC2 | 0.108 µM
